According to paper PMC10458596, “Synthesis, In Silico Logp Study, and In Vitro Analgesic Activity of Analogs of Tetrapeptide FELL” (Pharmaceuticals, 2023):
Residues, ends and D or L forms follow the SMILES beside them.

Assays:
male Wistar rats [1] = experiment: Paw-pressure test after Naloxone or AM251 pretreatment; type: in vivo, rat; details: 10th to 50th min (Figure 3); for Analgesia (PPT) after AM251 pretreatment: peptide i.p. after AM251 (CB1R antagonist) pretreatment; for Analgesia (PPT) after Naloxone pretreatment: peptide i.p. after Naloxone (MOR antagonist) pretreatment
Description: (§1) The experiments were carried out on male Wistar rats (180–200 g) kept under normal conditions at ambient room temperature (22 °C). The animals were divided into five experimental groups, each including 8–10 animals, and a control group (n = 10). All experimental procedures were carried out between 10:00 a.m. and 1:00 p.m. after having been approved by the Research Ethics Commission of the Medical University—Sofia.
(§2) The control group received 0.2 mL of saline intraperitoneally injected (i.p.), while the animals from each one of the experimental groups received 0.2 mL (0.25 mg/kg, i.p.) of one of the five newly synthesized analogs dissolved in saline.
(§3) Changes in the mechanical nociceptive thresholds (PPT) of experimental animals were measured by an analgesimeter. Pressure was applied to the hind paw, and the value (g) required to elicit a nociceptive response (i.e., a squeak or struggle) was taken as the mechanical nociceptive threshold. A cut-off value of 500 g was used to prevent damage to the paw.
(§4) Nociception was evaluated every 10 min from the 10th minute after the newly synthesized analog was administered until the 50th minute.
In order to estimate which type of receptor participates in the analgesic effects of the newly synthesized substances, pretreatments have been made with Naloxone—an antagonist with a high binding affinity for the MORs, clinically used to prevent fatal overdose consequences—and AM251—a CB1Rs’ antagonist.

[2] = test system: white blood cells (WBC), especially neutrophils and macrophages, in bronchoalveolar fluid (BALF); design: method as in PMID 25632019; details: cited from earlier work
male Wistar rats [3] = experiment: Paw-pressure test (Randall-Selitto test), PPT; type: in vivo, rat; details: for Analgesic activity (PPT) over time: 0.25 mg/kg i.p. in saline, measured every 10 min from 10th to 50th min, n = 8-10 per group, PPT in AU, mean ± S.E.M. (Figure 2)
Description: as §1, §2, §3, §4
The results were statistically assessed by one-way analysis of variance followed by a Newman-Keuls post-hoc comparison test. Values are represented as mean ± S.E.M. Values of p < 0.05 were considered to indicate statistical significance.

CC(C)C[C@H](NC(=O)[C@H](CC(C)C)NC(=O)[C@H](CCC(=O)O)NC(=O)[C@@H](N)Cc1ccccc1)C(=O)O [BB11, H-Phe-Glu-Leu-Leu-OH, reference compound] (H-FELL-OH)
Analgesia (PPT) after AM251 pretreatment (male Wistar rats [1]): completely abolished the analgesia
Analgesia (PPT) after Naloxone pretreatment (male Wistar rats [1]): completely abolished the analgesia
Reduction of total number of white blood cells and their accumulation in BALF in the lungs [2]: 51%
Analgesic activity (PPT) over time (male Wistar rats [3]): constantly increased PPT for the total time of the evaluation

TDIFELL
Reduction of total number of white blood cells and their accumulation in BALF in the lungs [2]: 54%

CCCC[C@H](NC(=O)[C@H](CCCC)NC(=O)[C@H](CCC(=O)O)NC(=O)[C@@H](N)Cc1ccccc1)C(N)=O [BB2, H-Phe-Glu-Nle-Nle-NH2] (HELM PEPTIDE1{F.E.[Nle].[Nle].[am]}$$$$V2.0)
Analgesic activity (PPT) over time (male Wistar rats [3]): fluctuating analgesia that did not reach the values of the parent compound

TDIFELLK
Reduction of total number of white blood cells and their accumulation in BALF in the lungs [2]: 57%

CC(C)[C@H](NC(=O)[C@@H](NC(=O)[C@H](CCC(=O)O)NC(=O)[C@@H](N)Cc1ccccc1)C(C)C)C(N)=O [BB3, H-Phe-Glu-Val-Val-NH2] (H-FEVV-NH2)
Analgesic activity (PPT) over time (male Wistar rats [3]): highest but short-lasting analgesic activity
Analgesic activity (PPT) vs BB11 at the 10th minute (male Wistar rats [3]; 0.25 mg/kg i.p., 10th min, F = 92.35602, p < 0.00001): exceeded that of BB11

CC(C)C[C@H](NC(=O)[C@H](CC(C)C)NC(=O)[C@H](CCC(=O)O)NC(=O)[C@@H](N)Cc1ccccc1)C(N)=O [BB1, H-Phe-Glu-Leu-Leu-NH2] (H-FELL-NH2)
Analgesia (PPT) after AM251 pretreatment (male Wistar rats [1]): completely abolished the analgesia
Analgesia (PPT) after Naloxone pretreatment (male Wistar rats [1]): completely abolished the analgesia
Analgesic activity (PPT) over time (male Wistar rats [3]): gradually increasing analgesic activity over time
Analgesic activity (PPT) vs parent compound BB11 at the end of the reported period (male Wistar rats [3]; 0.25 mg/kg i.p., 50th min, F = 5.38217, p = 0.042776): exceeded that of the parent compound BB11

H-Phe-Glu-Ile-Ile-NH2 [BB4, FELL analog with Ile at positions 3 and 4, C-terminal amide]
Analgesic activity (PPT) over time (male Wistar rats [3]): fluctuating analgesia that did not reach the values of the parent compound
